These results are taken from PubChem BioAssay (NCI).

Test systems include HS 578T breast; UACC-257 melanoma; A498 renal; CAKI-1 renal; DU-145 prostate; SK-MEL-2 melanoma; KM12 colon; NCI-H226 lung; SF-539 CNS; EKVX NSCLC.
Common to all, as to assay: NCI-60 cell line screen, 48 h

Where “and” joins values, the source holds several entries; their conditions need not be identical. Equal entries are not always repeated.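 Five concentrations, 48 hours, 96-well plates. GI50 marks 50% less growth. TGI denotes the concentration required for complete inhibition of growth.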 Bounds are passed on as bounds.

Regarding `Cn1c(=O)c(Cc2ccccc2F)cc2cnc(NC3CCOCC3)nc21`, the GI50 with HS 578T breast, with UACC-257 melanoma, in the assay with A498 renal, with CAKI-1 renal, in the assay on DU-145 prostate and in the assay on SK-MEL-2 melanoma was > 25 µM throughout. The GI50 in the assay on KM12 colon, in the assay on NCI-H226 lung and with SF-539 CNS was > 25 µM in each case. Besides, the TGI in the assay with HS 578T breast, in the assay with UACC-257 melanoma, in the assay on A498 renal, in the assay on CAKI-1 renal, in the assay with DU-145 prostate and in the assay with SK-MEL-2 melanoma was > 25 µM each time. Besides, the TGI with KM12 colon, in the assay on NCI-H226 lung and in the assay with SF-539 CNS was > 25 µM each time.

With `CN(CCC#N)c1ccc(/C=C(\C#N)c2ccc(Br)cc2)cc1`, the GI50 with HS 578T breast is > 100 µM; with UACC-257 melanoma it was > 100 µM; in the assay with A498 renal, > 100 µM; in the assay with CAKI-1 renal, > 100 µM; in the assay on DU-145 prostate, > 100 µM; with KM12 colon it was 3.7 µM. Besides, in the assay on NCI-H226 lung, the GI50 was > 100 µM. The TGI with HS 578T breast, in the assay with UACC-257 melanoma, in the assay with A498 renal, in the assay with CAKI-1 renal, in the assay on DU-145 prostate and in the assay on KM12 colon was > 100 µM in each case. The TGI in the assay with NCI-H226 lung is > 100 µM.

Regarding `C1CCC([PH+](C2CCCCC2)C2CCCCC2[PH+](C2CCCCC2)C2CCCCC2)CC1.O=C(C1[CH-]CCCC1)C1CCCC[N-]1.[Au]` (centres undefined), the GI50 with HS 578T breast is 0.225 µM; with UACC-257 melanoma, 0.337 µM; with A498 renal it was 0.0757 µM; in the assay on CAKI-1 renal it was 1.07 µM; in the assay with DU-145 prostate, 0.298 µM; in the assay on SK-MEL-2 melanoma it was 0.379 µM. The GI50 in the assay on NCI-H226 lung was 0.455 µM; in the assay on SF-539 CNS, 0.31 µM. Moreover, the TGI with HS 578T breast is 1.56 µM; with UACC-257 melanoma, 3.36 µM; in the assay with A498 renal it was 0.584 µM; in the assay on CAKI-1 renal it was 2.72 µM; with DU-145 prostate it was 1.61 µM; in the assay on SK-MEL-2 melanoma, 2.02 µM. Also, the TGI in the assay with NCI-H226 lung amounted to 2.43 µM; in the assay with SF-539 CNS, 1.28 µM.

With `Nc1ccn(C2CCC(CO)O2)c(=O)n1` (centres undefined), the TGI in the assay on HS 578T breast, in the assay with EKVX NSCLC, in the assay with UACC-257 melanoma, with CAKI-1 renal, in the assay with DU-145 prostate and in the assay with SK-MEL-2 melanoma was > 1000 µM throughout. In addition, the TGI in the assay on KM12 colon, with NCI-H226 lung and in the assay on SF-539 CNS was > 1000 µM throughout. The GI50 in the assay on EKVX NSCLC, in the assay on UACC-257 melanoma, in the assay on CAKI-1 renal, in the assay with SK-MEL-2 melanoma, in the assay on KM12 colon and with NCI-H226 lung was > 1000 µM each time. For the same compound, in the assay on SF-539 CNS, the GI50 was > 1000 µM.

Turning to `CCc1nc(C(N)=O)c(Nc2ccc(N3CCC(N4CCN(C)CC4)CC3)c(OC)c2)nc1NC1CCOCC1`, the GI50 with HS 578T breast is 1.56 µM and 0.514 µM and 1.85 µM; in the assay on EKVX NSCLC, 0.83 µM and 0.375 µM and 0.727 µM; in the assay on A498 renal it was 0.96 µM and 0.165 µM and 0.931 µM; in the assay with CAKI-1 renal, 1.24 µM and 0.236 µM and 1.21 µM; in the assay on DU-145 prostate it was 0.904 µM and 0.359 µM and 0.719 µM; in the assay on KM12 colon, 0.0933 µM and 0.0338 µM and 0.0649 µM. Moreover, the GI50 is 5.45 µM and > 10 µM and 5.78 µM with NCI-H226 lung; 5.46 µM and 1.05 µM and 7.87 µM in the assay with SF-539 CNS. Also, the TGI is 9.48 µM and > 2.32 µM and 11.3 µM with HS 578T breast; 18.2 µM and > 4.97 µM and 19 µM in the assay on EKVX NSCLC; 24.5 µM and > 10 µM and 24.3 µM in the assay with UACC-257 melanoma; 4.41 µM and 0.6 µM and 4.9 µM in the assay on A498 renal; 12.9 µM and > 10 µM and 13.4 µM in the assay on CAKI-1 renal; 18.5 µM and > 10 µM and 17.3 µM with DU-145 prostate. Moreover, the TGI is 12.8 µM and > 10 µM and 12 µM in the assay on KM12 colon; 28.8 µM and > 10 µM and 30 µM in the assay on NCI-H226 lung; 20.3 µM and > 2.27 µM and 22.1 µM in the assay with SF-539 CNS.

For the compound `COc1ccc(/C=C/c2cc(OC)cc(=O)o2)cc1`, the TGI with HS 578T breast, in the assay with EKVX NSCLC, with UACC-257 melanoma, with CAKI-1 renal, with DU-145 prostate and in the assay on SK-MEL-2 melanoma was > 100 µM each time. For the same compound, the TGI was > 100 µM in the assay on KM12 colon, > 100 µM with NCI-H226 lung and 46.1 µM in the assay on SF-539 CNS.

Take `O=C1Nc2ccc(F)cc2/C1=C/c1ccc[nH]1`: the GI50 with HS 578T breast is > 25 µM; with UACC-257 melanoma, > 25 µM; in the assay with A498 renal it was > 25 µM; in the assay on CAKI-1 renal, 8.03 µM; in the assay with DU-145 prostate it was > 25 µM; in the assay with SK-MEL-2 melanoma it was > 25 µM. Also, the GI50 in the assay on KM12 colon is 0.787 µM; in the assay with NCI-H226 lung, > 25 µM; in the assay with SF-539 CNS, > 25 µM. The TGI in the assay on HS 578T breast, with UACC-257 melanoma, in the assay with A498 renal, with CAKI-1 renal, in the assay with DU-145 prostate and in the assay on SK-MEL-2 melanoma was > 25 µM in each case. Besides, the TGI with KM12 colon, in the assay with NCI-H226 lung and in the assay on SF-539 CNS was > 25 µM throughout.

Take `O=C(/C=C\c1ccc(NCc2ccc(C(=O)O)cc2)cc1)CCl`: the GI50 with HS 578T breast is 15.7 µM; in the assay on UACC-257 melanoma it was 11.4 µM; in the assay on A498 renal it was 15 µM; in the assay with CAKI-1 renal, 16.6 µM; in the assay on DU-145 prostate, 17.3 µM; in the assay on SK-MEL-2 melanoma, 15 µM. In addition, the GI50 was 17 µM with KM12 colon, 17.1 µM in the assay with NCI-H226 lung and 15.5 µM with SF-539 CNS. Also, the TGI in the assay on HS 578T breast amounted to 45.6 µM; in the assay with UACC-257 melanoma, 23.8 µM; with A498 renal, 28.3 µM; in the assay on CAKI-1 renal it was 32.8 µM; with DU-145 prostate, 31.9 µM; in the assay on SK-MEL-2 melanoma, 30.5 µM. Moreover, the TGI amounted to 32 µM with KM12 colon, 41.6 µM in the assay with NCI-H226 lung and 29.3 µM in the assay with SF-539 CNS.

Regarding `Cc1ccc(-c2nc3ccc(Cl)cc3c(=O)n2N2C(=O)CSC2c2ccccc2Cl)cc1` (centres undefined), the GI50 is 2.62 µM with HS 578T breast; 4.15 µM in the assay on EKVX NSCLC; > 100 µM in the assay with UACC-257 melanoma; 5.91 µM in the assay with A498 renal; 4.82 µM with CAKI-1 renal; 58.4 µM with DU-145 prostate. Also, the values for the GI50 with KM12 colon, with NCI-H226 lung and in the assay on SF-539 CNS were > 100 µM, 5.14 µM and > 100 µM, respectively. Further, the TGI is 17.2 µM in the assay on HS 578T breast; > 100 µM in the assay with EKVX NSCLC; > 100 µM in the assay on UACC-257 melanoma; > 100 µM in the assay on A498 renal; > 100 µM in the assay with CAKI-1 renal; > 100 µM in the assay with DU-145 prostate. Moreover, the TGI with KM12 colon, in the assay with NCI-H226 lung and in the assay with SF-539 CNS was > 100 µM each time.
